Measured values from article PMC9944328 (Nature Communications, 2023).
Several values for one entry are separate records, joined by “and”; a condition that tells them apart may be missing. Identical values can stand only once.

Target: SSTR2 (Homo sapiens, UniProt P30874)
Experiment: SSTRs Gi-mediated cAMP inhibition, GloSensor, HEK293, 5 μM forskolin, 15 min room temperature (SSTR2 wild-type);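 on Bottom (best-fit value): normalized to the maximal wild-type response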;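 on Bottom (best-fit): normalized to the maximal wild-type response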;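 on Span (best-fit value), cAMP inhibition: normalized to the maximal wild-type response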;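 on Span (best-fit value): normalized to the maximal wild-type response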;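 on Span (best-fit): normalized to the maximal wild-type response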;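 on Span: normalized to the maximal wild-type response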;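 on Top (best-fit): normalized to the maximal wild-type response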
Assay type: cell-based
Parameters: Best-fit Top, cAMP inhibition / Span, cAMP inhibition / Best-fit Bottom / Best-fit Top / Best-fit Span / Bottom / Span (best-fit value), cAMP inhibition / Top (best-fit value), cAMP inhibition: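 normalized to the maximal wild-type response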
Conditions: for Bottom (best-fit value) / LogEC50 (best-fit value) / Span (best-fit value) / Top (best-fit value): Y205A panel
Protocol: The levels of the intracellular 3′, 5′-cyclic AMP (cAMP) were measured by the GloSensor cAMP assay (Promega) as described in the previous studies[28],[41] which has been widely used. The human full-length SSTRs and mutants were cloned into the pcDNA3.1+ vector with a HA signal sequence followed by a Flag tag at the N-terminus. HEK293 cells (ATCC, CRL-1573) were seeded into 6-well microplates at a density of 1.0 × 10^6 cells/well and cultured for 24 h at 37 °C with 5% CO2. Cells were then co-transfected with SSTR wild-type or mutants and GloSensor plasmids. After 24 h of transfection, the cells were dissociated with TrypLE™ Express Enzyme (1X) (Thermo Fisher Scientific) and collected by centrifugation at 500 × g for 5 min. Then the collected cells were suspended in Hank’s balanced salt solution [HBSS (Thermo Fisher Scientific)] supplemented with […] (YEASEN), and then the suspension cells were seeded into 96-well plates with 90 μl/well. After incubating at room temperature for 40 min, 5 μM forskolin and ligands diluted in HBSS were added to each well and the plates were incubated at room temperature for 15 min. […] were measured using the Synergy H1 microplate reader (BioTek) and the data presented are means of at least three independent experiments.

[1] = WT-2 (run 2 of each mutant's batch)
[2] = WT-3 (run 3 of each mutant's batch)
[3] = cAMP inhibition best-fit, D122A set, WT-1
[4] = cAMP inhibition best-fit, D122A set, WT-2
[5] = cAMP inhibition best-fit, D122A set, WT-3
[6] = cAMP inhibition best-fit, F127A set, WT-1
[7] = cAMP inhibition best-fit, F127A set, WT-2
[8] = cAMP inhibition best-fit, F127A set, WT-3
[9] = cAMP inhibition best-fit, I130A set, WT-1
[10] = cAMP inhibition best-fit, I130A set, WT-2
[11] = cAMP inhibition best-fit, I130A set, WT-3
[12] = cAMP inhibition best-fit, Q102A set, WT-1
[13] = cAMP inhibition best-fit, Q102A set, WT-2
[14] = cAMP inhibition best-fit, Q102A set, WT-3
[15] = cAMP inhibition best-fit, Q126A set, WT-1
[16] = cAMP inhibition best-fit, Q126A set, WT-2
[17] = cAMP inhibition best-fit, Q126A set, WT-3
[18] = cAMP inhibition best-fit, V103A set, WT-1
[19] = cAMP inhibition best-fit, V103A set, WT-2
[20] = cAMP inhibition best-fit, V103A set, WT-3

Sequence of SSTR2 (P30874 whole entry): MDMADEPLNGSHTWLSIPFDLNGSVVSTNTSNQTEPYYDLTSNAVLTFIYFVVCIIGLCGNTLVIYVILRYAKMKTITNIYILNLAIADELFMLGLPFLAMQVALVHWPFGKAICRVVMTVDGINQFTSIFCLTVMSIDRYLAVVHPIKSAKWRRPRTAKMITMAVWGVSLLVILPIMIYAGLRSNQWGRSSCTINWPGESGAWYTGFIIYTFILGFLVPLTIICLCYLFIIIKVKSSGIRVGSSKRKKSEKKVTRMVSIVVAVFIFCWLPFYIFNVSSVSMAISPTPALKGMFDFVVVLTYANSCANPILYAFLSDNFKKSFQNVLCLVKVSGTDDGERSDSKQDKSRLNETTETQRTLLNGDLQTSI

## N#Cc1cccc(-c2ccc3ncc(-c4cc(F)cc(F)c4)c(N4CCC(N)CC4)c3c2)c1O [paltusotine]
WT-1, run paired with T194H
  Span (best-fit): 111
  Top (best-fit): 106.2
WT-1, run paired with V103N
  Bottom (best-fit): 16.51
  LogEC50: -8.678
  Span (best-fit): 89.51
  Top (best-fit): 106
WT-1, run paired with Y205R
  LogEC50: -9.27
  Span (best-fit): 108.3
  Top (best-fit): 106.3
[1]
  Span (best-fit value), cAMP inhibition: 111.8 and 113.8 and 107.7 and 112.3
  Top (best-fit value), cAMP inhibition: 108 and 108.3 and 107.8 and 112.4
WT-2, run paired with D295F
  Bottom (best-fit): -1.411
  LogEC50: -9.3
  Span (best-fit): 105.2
  Top (best-fit): 103.8
WT-2, run paired with F294Y
  Bottom (best-fit): -1.411
  LogEC50: -9.3
  Span (best-fit): 105.2
  Top (best-fit): 103.8
WT-2, run paired with I195M
  Bottom (best-fit): 10.59
  LogEC50: -8.695
  Span (best-fit): 88.58
  Top (best-fit): 99.16
WT-2, run paired with T194H
  Bottom (best-fit): -0.3773
  LogEC50: -8.796
  Span (best-fit): 113.8
  Top (best-fit): 113.4
WT-2, run paired with V103N
  Bottom (best-fit): 8.218
  LogEC50: -8.87
  Span (best-fit): 100.4
  Top (best-fit): 108.6
WT-2, run paired with Y205R
  LogEC50: -9.271
  Span (best-fit): 104.8
  Top (best-fit): 105.4
[2]
  Span (best-fit value), cAMP inhibition: 106.7 and 111.8 and 113.8 and 112.4 and 113.7
  Top (best-fit value), cAMP inhibition: 107.8 and 108 and 112 and 113.6
WT-3, run paired with D295F
  Bottom (best-fit): 12.84
  LogEC50: -8.964
  Span (best-fit): 85.7
  Top (best-fit): 98.54
WT-3, run paired with F294Y
  Bottom (best-fit): -4.818
  LogEC50: -8.937
  Span (best-fit): 111
  Top (best-fit): 106.2
WT-3, run paired with T194H
  Bottom (best-fit): 8.218
  LogEC50: -8.87
  Span (best-fit): 100.4
  Top (best-fit): 108.6
WT-3, run paired with V103N
  Bottom (best-fit): -2.506
  LogEC50: -8.966
  Span (best-fit): 107.7
  Top (best-fit): 105.2
WT-3, run paired with Y205R
  LogEC50: -8.678
  Span (best-fit): 89.51
  Top (best-fit): 106
WT-1 (run 1)
  Bottom (best-fit value): -1.411
  LogEC50 (best-fit value): -9.3
  Span (best-fit value): 105.2
  Top (best-fit value): 103.8
WT-2 (run 2)
  Bottom (best-fit value): 7.891
  LogEC50 (best-fit value): -9.109
  Span (best-fit value): 96.39
  Top (best-fit value): 104.3
WT-3 (run 3)
  Bottom (best-fit value): 0.01788
  LogEC50 (best-fit value): -8.988
  Span (best-fit value): 104.7
  Top (best-fit value): 104.8
[3]
  Bottom: -4.038
  LogEC50: -8.63
  Span: 111.8
  Top: 107.8
[4]
  Bottom: -5.769
  LogEC50: -8.575
  Span: 113.8
  Top: 108
[5]
  Bottom: -1.411
  LogEC50: -9.3
  Span: 105.2
  Top: 103.8
[6]
  Bottom: -0.438
  LogEC50: -8.811
  Span: 112.4
  Top: 112
[7]
  Bottom: -4.818
  LogEC50: -8.937
  Span: 111
  Top: 106.2
[8]
  Bottom: -0.9578
  LogEC50: -9.526
  Span: 107.3
  Top: 106.4
[9]
  Bottom: -3.466
  LogEC50: -9.53
  Span: 116.5
  Top: 113
[10]
  Bottom: -6.932
  LogEC50: -9.494
  Span: 126.2
  Top: 119.3
[11]
  Bottom: -3.016
  LogEC50: -8.949
  Span: 106.8
  Top: 103.7
[12]
  LogEC50: -9.218
  Span: 100.2
  Top: 103.5
[13]
  LogEC50: -8.923
  Span: 98.67
  Top: 106.5
[14]
  LogEC50: -8.998
  Span: 106.7
  Top: 106.1
[15]
  Bottom: 7.891
  LogEC50: -9.109
  Span: 96.39
  Top: 104.3
[16]
  Bottom: -2.459
  LogEC50: -8.801
  Span: 121.7
  Top: 119.3
[17]
  Bottom: 2.655
  LogEC50: -9.073
  Span: 104.2
  Top: 106.8
[18]
  Bottom: -2.459
  LogEC50: -8.801
  Span: 121.7
  Top: 119.3
[19]
  Bottom: 3.281
  LogEC50: -9.218
  Span: 100.2
  Top: 103.5
[20]
  Bottom: 7.801
  LogEC50: -8.923
  Span: 98.67
  Top: 106.5
